Broadly, the inhibition is the percentage by which the read-out fell short of the control. Broadly, the IC50 is the concentration needed to halve the response being measured. Higher therefore signals a need for much substance. For orientation: AUC(0-t) means the area under the concentration-time curve up to a stated or last time point. The low end stands for less exposure, the high end for more exposure. One may read the Cmax as the peak of the concentration-time curve. The term Tmax denotes the time at which the peak concentration occurs. The term half-life denotes the time needed for the level to fall by half in the phase considered.

The values that follow come from patent US20240166645A1, “PYRIDOPYRIMIDINONE DERIVATIVE, PREPARATION METHOD THEREFOR, AND USE THEREOF” (Wuhan Humanwell Innovative Drug Research and Development …, priority 2021, published 2024).

Like-named read-outs stand apart in the source and are kept apart here.

The target in one data set is CYP3A4 (Homo sapiens (Human), UniProt P08684). In words: Inhibition test on cytochrome P450 subtype CYP3A4. In kind it is in vitro ADME. As to conditions: compound 10 μM, human liver microsomes. Here is the method:
The inhibitory potential of compounds on cytochrome P450 (CYP450) subtype CYP3A4 (two substrates of midazolam and testosterone) was detected. First, the compound to be tested was prepared into a 10 mM stock solution in DMSO solvent, and the CYP3A4 inhibitor ketoconazole was prepared as 10 mM, 2.5 mM and 2.5 mM stock solutions in DMSO solvent. The test compound and ketoconazole were diluted to 400-fold final concentration (compound: 10 μM, ketoconazole: 2.5 μM) with acetonitrile.
NADPH cofactor (10 mL of potassium phosphate buffer added with 66.7 mg NADPH) at 4-fold final concentration and substrates were prepared with potassium phosphate buffer (0.1 M, pH=7.4), with CYP3A4 substrate midazolam at a final concentration of […] and CYP3A4 substrate testosterone at a final concentration of 20 μM.
A human liver microsome solution at a concentration of 0.2 mg/mL was prepared with potassium phosphate buffer on ice. A solution of the compound to be tested and a control inhibitor (control compound) solution at 2-fold final concentration were prepared with the human liver microsome solution on ice. The test wells were added with […] of the test compound solution and the control inhibitor solution respectively, and then added with […] of the substrate for duplication. A 96-well assay plate and a NADPH solution were incubated at 37° C. for 5 min, and 15 μL of pre-heated 8 mM NADPH solution was added to the assay plate to initiate the reaction. A CYP3A4 assay plate was pre-incubated at 37° C. for 5 min. The plate was added with 120 μL of acetonitrile to terminate the reaction, and after quenching, the plate was shaken on a shaker (IKA, MTS 2/4) for 10 min (600 rpm/min), and then centrifuged for 15 min. After centrifugation, the supernatant was collected, and added with purified water in a ratio of 1:1 to perform LC-MS/MS detection. A ratio of a peak area of compound to a peak area of internal standard was obtained, and the peak area ratio of the compound was compared with the peak area ratio of the control inhibitor to calculate the inhibition rate.

The target in the next data set is KRAS G12C-SOS1 (Homo sapiens (Human), UniProt Q07889). In words: Inhibition test on KRAS G12C-SOS1 activity (Transcreener GDP-FI). It is filed as biochemical.
KRAS G12C-SOS1, sequence (Q07889 564-1049 limits assumed): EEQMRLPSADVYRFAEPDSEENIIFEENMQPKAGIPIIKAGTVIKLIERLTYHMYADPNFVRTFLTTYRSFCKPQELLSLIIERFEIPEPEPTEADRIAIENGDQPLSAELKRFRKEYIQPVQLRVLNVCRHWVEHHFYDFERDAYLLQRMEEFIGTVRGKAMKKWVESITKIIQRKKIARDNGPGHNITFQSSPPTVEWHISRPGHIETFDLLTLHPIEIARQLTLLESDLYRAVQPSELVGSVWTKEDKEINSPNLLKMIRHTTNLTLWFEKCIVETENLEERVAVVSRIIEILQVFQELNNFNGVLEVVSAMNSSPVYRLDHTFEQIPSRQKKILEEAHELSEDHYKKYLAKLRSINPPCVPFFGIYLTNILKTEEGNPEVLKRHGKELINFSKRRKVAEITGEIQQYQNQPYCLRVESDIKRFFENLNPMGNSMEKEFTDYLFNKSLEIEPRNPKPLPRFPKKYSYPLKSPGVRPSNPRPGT
Data set [1] is described as follows: Pharmacokinetic test in mice. In kind it is in vivo. As to conditions: mouse, plasma; male ICR mice, oral gavage, 10 mg/kg. The protocol:
Male ICR mice (20 to 25 g) were used and fasted overnight. Three mice were taken and orally administered by gavage (10 mg/kg). Blood was collected before the administration, and at 15 min, 30 min, 1 h, 2 h, 4 h, 8 h and 24 h after the administration. 6,800 g of the blood samples were centrifuged at 2 to 8° C. for 6 min, and plasma was collected and stored at −80° C. The plasma at each time point was taken and added with an acetonitrile solution containing internal standard in 3 to 5 times the amount, vortexed and mixed for 1 min, and centrifuged at 13,000 rpm/min at 4° C. for 10 min. The supernatant was collected, added with water in 3 times the amount, and mixed. An appropriate amount of the mixture was taken for LC-MS/MS analysis. The main pharmacokinetic parameters were analyzed using WinNonlin 7.0 software with non-compartmental model.

The mark [2] stands for this setting: pH 7.4, probe midazolam, substrate midazolam, read-out: CYP inhibition rate (%) CYP3A4 (midazolam).
Where [3] appears, read: pH 7.4, probe testosterone, substrate testosterone, read-out: CYP inhibition rate (%) CYP3A4 (testosterone).

CYP3A4, sequence (P08684 whole entry): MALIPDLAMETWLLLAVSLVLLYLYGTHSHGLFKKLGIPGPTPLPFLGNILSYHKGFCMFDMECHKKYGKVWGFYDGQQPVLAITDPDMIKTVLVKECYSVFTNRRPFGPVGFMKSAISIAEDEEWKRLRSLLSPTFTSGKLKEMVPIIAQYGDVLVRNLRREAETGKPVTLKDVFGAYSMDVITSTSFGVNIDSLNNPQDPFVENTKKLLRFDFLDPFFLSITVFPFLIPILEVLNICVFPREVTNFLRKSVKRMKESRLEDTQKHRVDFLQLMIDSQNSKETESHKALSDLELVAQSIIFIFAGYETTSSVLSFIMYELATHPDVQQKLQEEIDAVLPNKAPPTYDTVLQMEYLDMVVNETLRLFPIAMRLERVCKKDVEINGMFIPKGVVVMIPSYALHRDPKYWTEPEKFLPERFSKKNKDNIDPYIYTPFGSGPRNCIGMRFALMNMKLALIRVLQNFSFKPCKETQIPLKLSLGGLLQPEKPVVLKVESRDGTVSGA

Turning to `Cc1nc(N[C@H](C)c2cccc(S(=O)(=O)C(F)(F)F)c2F)c2cn(C3(CF)CC3)c(=O)cc2n1` [Compound I-2, (R)-4-((1-(2-fluoro-3-((trifluoromethyl)sulfonyl)phenyl)ethyl)amino)-6-(1-(fluoromethyl)cyclopropyl)-2-methylpyrido[4,3-d]pyrimidin-7(6H)-one], the inhibition at 5 min, 10 µM at CYP3A4 (setting [2]) turned out to be 10.8%. Further, the inhibition at 5 min, 10 µM on CYP3A4 (setting [3]) came out at 0%. The molecule also had an IC50 against KRAS G12C-SOS1 of 102 nM. In addition, in data set [1], the AUC(0-t) worked out at 517 ng·h/mL, the Cmax is 256 ng/mL, the Tmax was 30 min and the half-life is 59.4 min.

Turning to `Cc1nc(N[C@H](C)c2cccc(S(=O)(=O)C(F)F)c2C)c2cn(C3(CF)CC3)c(=O)cc2n1` [Compound I-1, (R)-4-((1-(3-((difluoromethyl)sulfonyl)-2-methylphenyl)ethyl)amino)-6-(1-(fluoromethyl)cyclopropyl)-2-methylpyrido[4,3-d]pyrimidin-7(6H)-one], the inhibition at 5 min, 10 µM on CYP3A4 (setting [2]) turned out to be 17.8%; on CYP3A4 (setting [3]) it was 0%. At KRAS G12C-SOS1, this molecule gave an IC50 of 59 nM.
